What was measured:
insulin secretion = assay: Alternating bolus injections of GLP-1 and exendin-4 via left atrial catheter in anesthetized dogs; details: after normalization of hyperglycemia and in euglycemic state
Procedure: GLP-1(7-36) amide was given at time 0 (0.1 nmol) and at 40 min (1 nmol).

[1] = cited from earlier work

Row | Compound | hypoglycemia (insulin secretion) | meal-related increases in blood glucose concentration and plasma insulin and glucagon ([1]; normal subjects, infusion) | lowering of the insulin required ([1]; patients with IDDM) | reduction of the requirement for insulin ([1]; patients with NIDDM)
1 | CC[C@H](C)[C@H](NC(=O)[C@H](Cc1ccccc1)NC(=O)[C@H](CCC(=O)O)NC(=O)[C@H](CCCCN)NC(=O)[C@H](C)NC(=O)[C@H](C)NC(=O)[C@H](CCC(N)=O)NC(=O)CNC(=O)[C@H](CCC(=O)O)NC(=O)[C@H](CC(C)C)NC(=O)[C@H](Cc1ccc(O)cc1)NC(=O)[C@H](CO)NC(=O)[C@H](CO)NC(=O)[C@@H](NC(=O)[C@H](CC(=O)O)NC(=O)[C@H](CO)NC(=O)[C@@H](NC(=O)[C@H](Cc1ccccc1)NC(=O)[C@@H](NC(=O)CNC(=O)[C@H](CCC(=O)O)NC(=O)[C@H](C)NC(=O)[C@@H](N)Cc1c[nH]cn1)[C@@H](C)O)[C@@H](C)O)C(C)C)C(=O)N[C@@H](C)C(=O)N[C@@H](Cc1c[nH]c2ccccc12)C(=O)N[C@@H](CC(C)C)C(=O)N[C@H](C(=O)N[C@@H](CCCCN)C(=O)NCC(=O)N[C@@H](CCCNC(=N)N)C(N)=O)C(C)C [GLP-1, glucagon-like peptide-1] | hypoglycemia does not occur | – | – | –
2 | glucagon-like insulinotropic peptide [GLIP] | – | significantly lowered | one half | 8 fold

Source: US5424286A (priority 1993, dated 1995)
